Experimental data taken from patent publication US20210161999A1, “COMPOSITIONS AND METHODS RELATED TO OVERCOMING INNATE IMMUNE BARRIERS TO CANCER IMMUNOTHERAPY” (Health Research, Inc., priority 2018, published 2021).
Entries after “also recorded” stand apart in the source; their conditions may differ. *1 amine or outer side, *2 acyl side, *3 side chain or, on linkers, in order; H or OH if unused. Where a SMILES comes first, the peptide text is derived from it. Bridges are numbered along the chain shown (N, C = ends). Roman numbers before positions name the chains, in order. [ ]: non-standard residue; d: D form. Actinocin(9to1) = Cc1c2oc3c(C)ccc(C(=O)[*:1])c3nc-2c(C(=O)[*:2])c(N)c1=O; NMeV = CN[C@H](C(=O)O)C(C)C; Sar = CNCC(=O)O

Test system: PMN suppressor phenotype (suppression of anti-CD3/CD28-stimulated T cell proliferation)
Test: Coculture of PMN with ascites supernatants and anti-CD3/CD28-stimulated T cells; T cell proliferation by [3H] thymidine incorporation
Assay type: cell-based, human
Details: for effect on ascites-induced PMN-mediated suppression: L-arginine 50 μM-1 mM, NAC 10-25 mM, DNase I 50-100 IU (n=3)
Description: Freshly isolated T cells (1e5) were stimulated with anti-CD3/CD28 Dynabeads (2.5 μl; Thermo Fisher Scientific) and cocultured with autologous PMN (1:1) and ascites supernatants (50% final well volume) in an incubator at 37° C., 5% CO2. After 72 h, [^3H] thymidine (1 μCi per well) was added and allowed to incorporate for 16-18 h. Cells were harvested onto a Filtermat and counted on a Beta counter. Results are expressed as net cpm [calculated by subtracting the average cpm of unstimulated T cells from the average cpm of stimulated T cells].
Where indicated, T cells, PMN, and ascites supernatants underwent various pretreatments. Where indicated, T cells were pretreated for lh with neutralizing antibody against ICAM-I (1-10 μg), IgG1 isotype (1-10 μg), or media (RPMI 1640, 5-10% heat-inactivated FBS, HEPES, sodium pyruvate, non-essential amino acids, and penicillin-streptomycin).
Where indicated, PMN were pretreated for lh with neutralizing antibody against CD11b (1-10 μg), TGF-beta receptor 1 (1-10 μg) or IgG1 isotype (1-10 μg); thapsigargin (THG, 0.5-2 μM), diphenyleneiodonium (DPI, 1-25 μM), N-Formylmethionine-leucyl-phenylalanine (fMLF, 1-100 nM), brefeldin-A (1-10 μg/mL), ER export inhibitor 1 (Exol, 20-75 μM), CI-amidine (10-20 μM), SNARE decoys: TAT-SNAP23 (0.6-0.9 μg/mL), TAT-SYN4 (0.6-0.9 μg/mL), TAT-GST (0.6-0.9 μg/mL) (produced as described in the laboratory of Dr. Kenneth McLeish), puromycin and actinomycin-D (1-5 μg/mL), or with media.
Where indicated, ascites supernatants were pretreated with heat (56° C., lh) to denature heat-labile constituents or proteinase-K (100 μM, 37° C., 12 h) to degrade proteins. Two formulations of compstatin, a peptide C3 inhibitor, were used: CS (250 μM, 30° C., 2 h, Tocris) and Cp40 (1.25-20 μM, 30° C., 2 h), as well as a scramble peptide. In separate studies, ascites supernatants were ultra-centrifuged (100,000g, 4° C., 1.5 h) to separate the membrane-rich (MR-ASC) and membrane-depleted (MD-ASC) fractions. In others, ascites supernatants were pretreated for lh with neutralizing antibody against C5 (0.5-1.0 μg, A217; Quidel, San Diego, Calif.) or C7 (0.5-1.0 μg, A221; Quidel) or IgG1 isotype (0.5-1.0 μg), or with OmCI (0.6-1.2 μM), a peptide C5 inhibitor derived from the saliva of Ornithodoros moubata (35, 36).

[1] = added to cocultures, indomethacin 10 μM, zileuton 50 μM, 1-MT 100 μM
[2] = PMN pretreated, brefeldin-A 1-10 μg/mL, Exo1 20-75 μM (n=3)
[3] = PMN pretreated for 1 h prior to coculture, puromycin 1 μg, D-actinomycin 1 μg (n=8)
[4] = PMN pretreated, fMLF 100 nM, THG 1 μM, DPI 1 μM (n=7)

Cn1cc(CC(N)C(=O)O)c2ccccc21 (racemic) [1-methyl-DL-tryptophan]
effect on PMN suppressor phenotype [1]: did not reverse the phenotype; also recorded: had no effect on the PMN suppressor phenotype

NC(=O)[C@H](CCCN=C(N)CCl)NC(=O)c1ccccc1 [CI-amidine]
effect on PMN suppressor phenotype (PMN pretreated with CI-amidine (10-20 μM) for 1 h prior to coculture (n=3)): did not abrogate the PMN suppressor phenotype; also recorded: had no effect on the PMN suppressor phenotype

CC[C@H](C)[C@H](N)C(=O)N[C@H]1CSSC[C@@H](C(=O)N[C@H](C(N)=O)[C@@H](C)O)NC(=O)[C@H](CCCN=C(N)N)NC(=O)[C@H](Cc2cnc[nH]2)NC(=O)[C@H](Cc2cnc[nH]2)NC(=O)CNC(=O)[C@H](Cc2c[nH]c3ccccc23)NC(=O)[C@H](CC(=O)O)NC(=O)[C@H](CCC(N)=O)NC(=O)[C@H](C(C)C)NC(=O)[C@H](C(C)C)NC1=O [CS, compstatin]
effect on PMN suppressor phenotype (added to ASC 2 h prior to coculture with PMN and T cells, CS 250 μM, Cp40 20 μM, scramble peptide 20 μM): abrogated the PMN suppressor phenotype | effect on PMN suppressor phenotype (added to ASC 2 h prior to coculture with PMN and T cells, CS 250 μM, Cp40 20 μM, scramble peptide 20 μM, listed as compstatin): completely abrogated the PMN suppressor phenotype

COC(=O)c1ccccc1NC(=O)c1ccc(F)cc1 [ER export inhibitor 1]
effect on PMN suppressor phenotype [2]: abrogated the suppressor phenotype | effect on PMN suppressor phenotype (PMN pretreated, brefeldin-A 1-10 μg/mL, Exo1 20-75 μM (n=3), listed as Exo1): abrogated the PMN suppressor phenotype

N=C(N)NCCC[C@H](N)C(=O)O [L-arginine]
effect on ascites-induced PMN-mediated suppression (added to cocultures): did not reverse ascites-induced PMN-mediated suppression; also recorded: had no effect on T cell suppression

CC(=O)N[C@@H](CS)C(=O)O [N-acetylcysteine]
effect on ascites-induced PMN-mediated suppression (added to cocultures): did not reverse ascites-induced PMN-mediated suppression | effect on ascites-induced PMN-mediated suppression (added to cocultures, listed as NAC): did not reverse suppression

Cc1c2oc3c(C)ccc(C(=O)N[C@@H]4C(=O)N[C@H](C(C)C)C(=O)N5CCC[C@H]5C(=O)N(C)CC(=O)N(C)[C@@H](C(C)C)C(=O)O[C@@H]4C)c3nc-2c(C(=O)N[C@@H]2C(=O)N[C@H](C(C)C)C(=O)N3CCC[C@H]3C(=O)N(C)CC(=O)N(C)[C@@H](C(C)C)C(=O)O[C@@H]2C)c(N)c1=O [actinomycin D] (I: T[dV]P[Sar][NMeV] / II: T[dV]P[Sar][NMeV]; ester I:1-I:C, II:1-II:C; linker I:N-II:N via Actinocin(9to1))
effect on PMN suppressor phenotype [3]: variable abrogation of the suppressor phenotype | effect on PMN suppressor phenotype (PMN pretreated for 1 h prior to coculture, puromycin 1 μg, D-actinomycin 1 μg (n=8), listed as D-actinomycin): had more variable effects

C[C@H]1CCC/C=C/[C@@H]2C[C@H](O)C[C@H]2[C@H](O)/C=C/C(=O)O1 [brefeldin-A]
effect on PMN suppressor phenotype [2]: abrogated the PMN suppressor phenotype

c1ccc2c(c1)[I+]c1ccccc1-2 [diphenyleneiodonium]
effect on PMN suppressor phenotype [4]: abrogated the PMN suppressor phenotype | effect on PMN suppressor phenotype (PMN pretreated, fMLF 100 nM, THG 1 μM, DPI 1 μM (n=7), listed as DPI): did abrogate the PMN suppressor phenotype

COc1ccc2c(c1)c(CC(=O)O)c(C)n2C(=O)c1ccc(Cl)cc1 [indomethacin]
effect on PMN suppressor phenotype [1]: had no effect on the PMN suppressor phenotype | effect on PMN suppressor phenotype (added to cocultures, indomethacin 10 μM, zileuton 50 μM, 1-MT 100 μM, listed as Indomethacin): did not reverse the phenotype

COc1ccc(C[C@H](N)C(=O)N[C@H]2[C@@H](O)[C@H](n3cnc4c(N(C)C)ncnc43)O[C@@H]2CO)cc1 [puromycin]
effect on PMN suppressor phenotype [3]: abrogated the PMN suppressor phenotype; also recorded: variable abrogation of the suppressor phenotype

C/C=C(/C)C(=O)O[C@H]1C(C)=C2[C@H]([C@@H]1OC(=O)CCCCCCC)[C@@](C)(OC(C)=O)C[C@H](OC(=O)CCC)[C@@]1(O)[C@H]2OC(=O)[C@@]1(C)O [thapsigargin]
effect on PMN suppressor phenotype [4]: abrogated the PMN suppressor phenotype

CC(c1cc2ccccc2s1)N(O)C(N)=O (stereo not shown) [zileuton]
effect on PMN suppressor phenotype [1]: did not reverse the phenotype; also recorded: had no effect on the PMN suppressor phenotype

N-Formylmethionine-leucyl-phenylalanine [fMLF]
effect on PMN suppressor phenotype [4]: abrogated the PMN suppressor phenotype; also recorded: prevented induction of the PMN suppressor phenotype

B1: DNase I: enzyme added to the cocultures to degrade NETs (protein, UniProt P24855 23-282, looked up)
Deoxyribonuclease-1: LKIAAFNIQTFGETKMSNATLVSYIVQILSRYDIALVQEVRDSHLTAVGKLLDNLNQDAPDTYHYVVSEPLGRNSYKERYLFVYRPDQVSAVDSYYYDDGCEPCGNDTFNREPAIVRFFSRFTEVREFAIVPLHAAPGDAVAEIDALYDVYLDVQEKWGLEDVMLMGDFNAGCSYVRPSQWSSIRLWTSPTFQWLIPDSADTTATPTHCAYDRIVVAGMLLRGAVVPDSALPFNFQAAYGLSDQLAQAISDHYPVEVMLK
effect on ascites-induced PMN-mediated suppression (added to cocultures): did not reverse ascites-induced PMN-mediated suppression; also recorded: had no effect on the PMN suppressor phenotype

B2: OmCI: peptide C5 inhibitor derived from the saliva of Ornithodoros moubata (protein, UniProt Q5YD59 19-168, looked up)
Complement inhibitor: DSESDCTGSEPVDAFQAFSEGKEAYVLVRSTDPKARDCLKGEPAGEKQDNTLPVMMTFKNGTDWASTDWTFTLDGAKVTATLGNLTQNREVVYDSQSHHCHVDKVEKEVPDYEMWMLDAGGLEVEVECCRQKLEELASGRNQMYPHLKDC
effect on PMN suppressor phenotype (ASC pretreated 1 h with neutralizing Ab against C5 or C7 (0.5-1.0 μg) or OmCI (0.6-1.2 μM) prior to coculture): partially abrogated the PMN suppressor phenotype; also recorded: had a partial abrogating effect on T cell suppression
